Assays:
[1] = molecular target: T1, recombinant human Cox-2 (r-hu Cox-2) (Homo sapiens, UniProt P35354); assay: Recombinant human PGHS-2 enzyme assay (RHUCX2); type: biochemical; details: for IC50: read-out: RHUCX2 IC50 (parenthetical value)
T1 construct: made in house; host or cells: baculovirus/Sf9 insect cells (microsomes)
T1 sequence (P35354 18-604): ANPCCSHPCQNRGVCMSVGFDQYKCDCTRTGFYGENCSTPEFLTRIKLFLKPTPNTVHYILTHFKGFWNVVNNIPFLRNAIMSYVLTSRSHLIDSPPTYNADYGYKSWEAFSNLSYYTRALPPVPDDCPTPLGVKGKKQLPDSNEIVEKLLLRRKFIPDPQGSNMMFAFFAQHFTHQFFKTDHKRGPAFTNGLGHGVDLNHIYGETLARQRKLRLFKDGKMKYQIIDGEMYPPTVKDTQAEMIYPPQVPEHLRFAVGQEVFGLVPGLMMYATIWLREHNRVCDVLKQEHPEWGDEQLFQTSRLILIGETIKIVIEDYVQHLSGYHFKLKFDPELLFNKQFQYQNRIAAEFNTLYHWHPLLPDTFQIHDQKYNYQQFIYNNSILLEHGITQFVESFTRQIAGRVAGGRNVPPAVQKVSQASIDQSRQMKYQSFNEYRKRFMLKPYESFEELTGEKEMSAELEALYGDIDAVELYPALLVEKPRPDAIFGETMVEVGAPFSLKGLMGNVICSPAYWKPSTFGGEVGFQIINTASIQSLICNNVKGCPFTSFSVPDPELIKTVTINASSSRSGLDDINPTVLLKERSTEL
Method: (§1) To compare the mean responses of the treatment groups, analysis of variance was applied. Percent inhibition values were determined by comparing the individual treatment mean values to the mean of the control group. Linear regression was used to estimate IC50's/ED50's in appropriate assays.
(§2) EIA reagents for prostaglandin determination were purchased from Perseptive Diagnostics, (Cambridge, Mass.). Prostaglandin E2 (PGE2) levels in lavage fluids were determined after the samples were dried under nitrogen and reconstituted with assay buffer. PGE2 levels in enzyme assays or cell culture media were measured against standards prepared in the same milieu. The immunoassays were conducted as recommended by the manufacturer. The EIA was conducted in 96 well microtiter plates (Nunc Roskilde, Denmark) and optical density was measured using a microplate reader (Vmax, Molecular Devices Corp., Menlo Park, Calif.).
(§3) Inhibition of prostaglandin biosynthesis in vitro was evaluated using recombinant human Cox-1 (r-hu Cox1) and Cox-2 (r-hu Cox-2) enzyme assays. […] The reaction was allowed to run for 2.5 minutes at room temperature prior to quenching with HCl and neutralization with NaOH. PGE2 production in the presence and absence of the drug was determined by EIA analysis. The EIA was conducted in 96 well microtiter plates (Nunc Roskilde, Denmark) and optical density was measured using a microplate reader (Vmax, Molecular Devices Corp., Menlo Park, Calif.). EIA reagents for prostaglandin determination were purchased from Perseptive Diagnostics (Cambridge, Mass.). PGE2 levels were measured against standards prepared in the same milieu. The immunoassays were conducted as recommended by the manufacturer.

[2] = molecular target: T2, recombinant human Cox-1 (r-hu Cox1) (Homo sapiens, UniProt P23219); assay: Recombinant human PGHS-1 enzyme assay (RHUCX1); type: biochemical
T2 construct: made in house; host or cells: baculovirus/Sf9 insect cells (microsomes)
T2 sequence (P23219 24-599): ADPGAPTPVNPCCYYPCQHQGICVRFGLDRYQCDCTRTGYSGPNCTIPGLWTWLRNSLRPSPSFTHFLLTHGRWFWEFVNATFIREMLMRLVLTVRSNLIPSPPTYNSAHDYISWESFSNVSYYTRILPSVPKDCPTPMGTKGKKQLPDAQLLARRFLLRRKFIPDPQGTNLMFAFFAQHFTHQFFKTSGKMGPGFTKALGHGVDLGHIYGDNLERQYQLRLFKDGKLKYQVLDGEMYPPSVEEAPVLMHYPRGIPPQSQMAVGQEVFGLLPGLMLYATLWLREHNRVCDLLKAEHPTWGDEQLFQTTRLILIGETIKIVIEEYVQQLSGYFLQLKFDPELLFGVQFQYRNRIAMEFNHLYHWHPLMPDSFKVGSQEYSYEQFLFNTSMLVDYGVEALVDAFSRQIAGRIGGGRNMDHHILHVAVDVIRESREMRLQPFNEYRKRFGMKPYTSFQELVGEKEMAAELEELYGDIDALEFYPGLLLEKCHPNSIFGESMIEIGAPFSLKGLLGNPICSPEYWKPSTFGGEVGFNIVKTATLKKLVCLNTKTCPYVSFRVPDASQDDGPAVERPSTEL
Method: as §1, §2, §3

[3] = 100 μM, read-out: RHUCX1 % Inh. at Dose
[4] = 0.1 μM, read-out: RHUCX2 % Inh. at Dose
[5] = 1 μM, read-out: RHUCX2 % Inh. at Dose

CS(=O)(=O)c1ccc(-c2cnn(-c3csc4ccccc34)c(=O)c2-c2ccc(F)cc2)cc1 [Example 107]
RHUCX2 % Inh. at Dose (μM) ([1]; 0.1 μM): 36 @ 0.1%
RHUCX2 % Inh. at Dose (μM) ([1]; 1 μM): 86 @ 1%
RHUCX1 % Inh. at Dose (μM) ([2]; 1 μM): 50 @ 1%
RHUCX1 % Inh. at Dose (μM) ([2]; 10 μM): 88 @ 10%

CS(=O)(=O)c1ccc(-c2cnn(-c3cccc(Br)c3)c(=O)c2Oc2ccc(F)cc2)cc1 [Example 110]
RHUCX2 % Inh. at Dose (μM) ([1]; 0.1 μM): 50 @ 0.1%
RHUCX2 % Inh. at Dose (μM) ([1]; 1 μM): 93 @ 1%
RHUCX1 % Inh. at Dose (μM) ([2]; 100 μM): 5 @ 100%

CC1CCC(n2ncc(-c3ccc(S(C)(=O)=O)cc3)c(-c3ccc(F)cc3)c2=O)C1 (stereo not drawn) [Example 133]
IC50 [1]: 358 nM
RHUCX1 % Inh. at Dose (μM) ([2]; 100 μM): 23 @ 100%

CS(=O)(=O)c1ccc(-c2cnn(-c3ccoc3)c(=O)c2-c2ccc(F)cc2)cc1 [Example 183, 2-(3-Furyl)-4-(4-fluorophenyl)-5-[4-(methylsulfonyl)phenyl]-3(2H)-pyrdazinone]
RHUCX2 % Inh. at Dose (μM) ([1]; 0.1 μM): 51 @ 0.1%
RHUCX2 % Inh. at Dose (μM) ([1]; 1 μM): 97 @ 1%
RHUCX1 % Inh. at Dose (μM) ([2]; 100 μM): 25 @ 100%

CC(C)CCc1c(-c2ccc(S(C)(=O)=O)cc2)cnn(CC(F)(F)F)c1=O [Example 209]
RHUCX2 % Inh. at Dose (μM) ([1]; 0.01 μM): 40 @ 0.01%
RHUCX2 % Inh. at Dose (μM) ([1]; 0.1 μM): 55 @ 0.1%
RHUCX2 % Inh. at Dose (μM) ([1]; 1 μM): 79 @ 1%
RHUCX1 % Inh. at Dose (μM) ([2]; 100 μM): 0 @ 100%

CS(=O)(=O)c1ccc(-c2cnn(CC(F)(F)F)c(=O)c2-c2ccc(C(F)(F)F)cc2)cc1 [Example 213, 2-(2,2,2-Trifluoroethyl)-4-(4-trifluoromethylphenyl)-5-[4-(methylsulfonyl)phenyl]-3(2H)-pridazinone]
IC50 [1]: 812 nM
inhibition at 100 µM [2, 3]: 0%

Cc1ccc(-c2c(-c3ccc(S(C)(=O)=O)cc3)cnn(CC(F)(F)F)c2=O)cc1F [Example 219, 2-(2,2,2-Trifluoroethyl)-4-(3-fluoro-4-methylphenyl)-5-[4-(methylsulfonyl)phenyl]-3(2H)-pyridazinone]
inhibition at 0.1 µM [1, 4]: 75%
inhibition at 1 µM [1, 5]: 90%
inhibition at 100 µM [2, 3]: 20%

COc1c(F)cc(-c2c(-c3ccc(S(C)(=O)=O)cc3)cnn(CC(F)(F)F)c2=O)cc1F [Example 220, 2-(2,2,2-Trifluoroethyl)-4-(3,5-difluoro-4-methoxyphenyl)-5-[4-(methylsulfonyl)phenyl]-3(2H)-pyridazinone]
inhibition at 0.1 µM [1, 4]: 90%
inhibition at 1 µM [1, 5]: 96%
inhibition at 1 µM ([2]; 1 μM, read-out: RHUCX1 % Inh. at Dose): 38%
inhibition at 100 µM [2, 3]: 51%

CS(=O)(=O)c1ccc(-c2cnn(-c3ccc(F)cc3)c(=O)c2C#Cc2ccccc2)cc1 [Example 231, 2-(4-Fluorophenyl)-4-(pheylethynyl)-5-[4-(methylsulfonl)phenyl]-3(2H)-pyridazinone]
RHUCX2 % Inh. at Dose (μM) ([1]; 0.1 μM): 68 @ 0.1%
RHUCX2 % Inh. at Dose (μM) ([1]; 1 μM): 90 @ 1%
RHUCX1 % Inh. at Dose (μM) ([2]; 100 μM): 7 @ 100%

CS(=O)(=O)c1ccc(-c2cnn(-c3ccc(F)c(F)c3)c(=O)c2-c2cccs2)cc1 [Example 237, 2-(3,4-Difluorophenyl)-4-(2-thienyl)-5-[4-(methylsulfonyl)phenyl]-3(2H)-pridazinone]
RHUCX2 % Inh. at Dose (μM) ([1]; 0.1 μM): 89 @ 0.1%
RHUCX1 % Inh. at Dose (μM) ([2]; 1 μM): 44 @ 1%
RHUCX1 % Inh. at Dose (μM) ([2]; 10 μM): 54 @ 10%

O=c1c(-c2ccc(F)cc2)c(-c2ccc(S(=O)(=O)C(F)(F)F)cc2)cnn1Cc1ccccc1 [Example 260, 2-Benzyl-4-(4-fluorophenyl)-5-[4-(trifluoromethylsulfonyl)phenyl]-3(2H)-pyridazinone]
inhibition at 10 µM ([1]; 10 μM, read-out: RHUCX2 % Inh. at Dose): 2%
inhibition at 100 µM [2, 3]: 8%

CS(=O)(=O)c1ccc(-c2cnn(CC(F)(F)F)c(=O)c2Oc2cc(C(F)(F)F)ccc2F)cc1 [Example 263, 2-(2,2,2-Trifluoroethyl)-4-(2-fluoro-5-trifluoromethylphenoxy)-5-[4-(methylsulfonyl)phenyl]-3(2H)-pridazinone]
RHUCX2 % Inh. at Dose (μM) ([1]; 0.1 μM): 53 @ 0.1%
RHUCX2 % Inh. at Dose (μM) ([1]; 1 μM): 76 @ 1%
RHUCX2 % Inh. at Dose (μM) ([1]; 10 μM): 85 @ 10%
RHUCX1 % Inh. at Dose (μM) ([2]; 100 μM): 1 @ 100%

COc1ccc(CCOc2c(-c3ccc(S(C)(=O)=O)cc3)cnn(CC(F)(F)F)c2=O)cc1OC [Example 272]
RHUCX2 % Inh. at Dose (μM) ([1]; 0.1 μM): 55 @ 0.1%
RHUCX2 % Inh. at Dose (μM) ([1]; 1 μM): 70 @ 1%
RHUCX1 % Inh. at Dose (μM) ([2]; 100 μM): 0 @ 100%

CS(=O)(=O)c1ccc(-c2cnn(CC(F)(F)F)c(=O)c2OCCN2CCOCC2)cc1 [Example 273]
RHUCX2 % Inh. at Dose (μM) ([1]; 1 μM): 42 @ 1%
RHUCX2 % Inh. at Dose (μM) ([1]; 10 μM): 54 @ 10%
RHUCX1 % Inh. at Dose (μM) ([2]; 100 μM): 16 @ 100%

CS(=O)(=O)c1ccc(-c2cnn(CC(F)(F)F)c(=O)c2SC2CCCC2)cc1 [Example 283]
RHUCX2 % Inh. at Dose (μM) ([1]; 0.1 μM): 54 @ 0.1%
RHUCX2 % Inh. at Dose (μM) ([1]; 1 μM): 71 @ 1%
RHUCX2 % Inh. at Dose (μM) ([1]; 10 μM): 90 @ 10%
RHUCX1 % Inh. at Dose (μM) ([2]; 100 μM): 0 @ 100%

CS(=O)(=O)c1ccc(-c2cnn(CC(F)(F)F)c(=O)c2Nc2ccc(F)cc2F)cc1 [Example 314]
RHUCX2 % Inh. at Dose (μM) ([1]; 1 μM): 4 @ 1%
RHUCX2 % Inh. at Dose (μM) ([1]; 10 μM): 51 @ 10%
RHUCX1 % Inh. at Dose (μM) ([2]; 100 μM): 7 @ 100%

CS(=O)(=O)c1ccc(-c2cnn(Cc3ccccc3)c(=O)c2-c2cc3ccccc3o2)cc1 [Example 318, 2-Benzyl-4-(2-benzofuranyl)-5-[4-(methylsulfonyl)phenyl]-3(2H)-pyridazinone]
inhibition at 0.1 µM [1, 4]: 77%
inhibition at 1 µM [1, 5]: 97%
inhibition at 100 µM [2, 3]: 23%

CN(Cc1ccccc1)c1c(-c2ccc(S(C)(=O)=O)cc2)cnn(-c2cccc(Cl)c2)c1=O [Example 354, 2-(3-Chlorophenyl)-4-(N-methylbenzylamnino)-5-[4-(methylsulfonyl)phenyl]-3(2H)-pyridazinone]
RHUCX2 % Inh. at Dose (μM) ([1]; 0.1 μM): 36 @ 0.1%
RHUCX2 % Inh. at Dose (μM) ([1]; 1 μM): 45 @ 1%
RHUCX2 % Inh. at Dose (μM) ([1]; 10 μM): 45 @ 10%
RHUCX1 % Inh. at Dose (μM) ([2]; 100 μM): ∠@ 100

CS(=O)(=O)c1ccc(-c2cnn(-c3cccc(Cl)c3)c(=O)c2C2CCCC2)cc1 [Example 362, 2-(3-Chlorophenyl)-4-(cyclopentyl)-5-[4-(methylonylsulfonyl)phenyl]-(2H)-pyridazinone]
RHUCX2 % Inh. at Dose (μM) ([1]; 1 μM): 49 @ 1%
RHUCX2 % Inh. at Dose (μM) ([1]; 10 μM): 84 @ 10%
RHUCX1 % Inh. at Dose (μM) ([2]; 100 μM): 1 @ 100%

Cc1ccc(-c2c(-c3ccc(S(N)(=O)=O)cc3)cnn(-c3ccc(F)cc3)c2=O)cc1F [Example 387]
RHUCX2 % Inh. at Dose (μM) ([1]; 0.01 μM): 56 @ 0.01%
RHUCX2 % Inh. at Dose (μM) ([1]; 0.1 μM): 65 @ 0.1%
RHUCX2 % Inh. at Dose (μM) ([1]; 1 μM): 76 @ 1%
RHUCX1 % Inh. at Dose (μM) ([2]; 1 μM): 60 @ 1%
RHUCX1 % Inh. at Dose (μM) ([2]; 10 μM): 57 @ 10%

NS(=O)(=O)c1ccc(-c2cnn(-c3cccc(Cl)c3)c(=O)c2CCc2ccccc2)cc1 [Example 393, 2-(3-Chlorophenyl)-4-(phenethyl)-5-[4-(aminosulfonyl)phenyl]-3(2H)-pyridazinone]
inhibition at 0.1 µM [1, 4]: 58%
inhibition at 1 µM [1, 5]: 85%
inhibition at 100 µM [2, 3]: 15%

CC(C)CCOc1c(-c2ccc(S(N)(=O)=O)cc2)cnn(-c2ccc(F)cc2)c1=O [Example 398, 2-(4-Fluorophenyl)-4-(3-methylbutoxy)-5-[4-(aminosulfonyl)phenyl]-3(2H)-pyrdazinone]
IC50 [1]: 202 nM
inhibition at 100 µM [2, 3]: 26%

CC(C)COc1c(-c2ccc(S(N)(=O)=O)c(F)c2)cnn(-c2cccc(Cl)c2)c1=O [Example 412]
IC50 [1]: 2 nM
inhibition at 100 µM [2, 3]: 31%

CC(C)CCCc1c(-c2ccc(S(C)(=O)=O)cc2)cnn(-c2cccc(Cl)c2)c1=O [Example 421, 2-(3-Chlorophenyl)-4-(4-methylpentyl)-5-[4-(methylsulfonyl)phenyl]-3(2H)-pyridazinone]
inhibition at 0.01 µM ([1]; 0.01 μM, read-out: RHUCX2 % Inh. at Dose): 38%
inhibition at 0.1 µM [1, 4]: 81%
inhibition at 1 µM [1, 5]: 92%
IC50 ([2]; read-out: RHUCX1 IC50 (parenthetical value)): 269 nM

CC(C)=CCOc1c(-c2ccc(S(C)(=O)=O)cc2)cnn(-c2ccc(F)cc2)c1=O [Example 422]
RHUCX2 % Inh. at Dose (μM) ([1]; 0.1 μM): 37 @ 0.1%
RHUCX2 % Inh. at Dose (μM) ([1]; 1 μM): 52 @ 1%
RHUCX1 % Inh. at Dose (μM) ([2]; 1 μM): 76 @ 1%
RHUCX1 % Inh. at Dose (μM) ([2]; 10 μM): 82 @ 10%
RHUCX1 % Inh. at Dose (μM) ([2]; 100 μM): 53 @ 100%

From US20020028938A1, “Prostaglandin endoperoxide H synthase biosynthesis inhibitors” (priority 1997, published 2002)
